Assay results as given in patent publication US10689381B2 (priority 2017, dated 2020).
Read-outs that look alike come from different tables or passages of the source.

Columns and labels:
HCT116 = assay: cells; type: cell-based, human; conditions: for potency relative to vinblastine (more potent): vinblastine-sensitive cell lines
Summary of the method: (§1)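 Cells seeded at 30,000 cells/mL in DMEM with 10% FBS, then exposed for 72 h to compound at six concentrations spanning 0–1000 nM or 0–10000 nM, in duplicate. Final incubation at 37 °C lasted 5 min for L1210 and 15 min for HCT116.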

HCT116/VM46 = assay: cells; type: cell-based, human
Protocol: Compounds were tested for their cell growth inhibition of L1210 (ATCC no. CCL-219, mouse lymphocytic leukemia), HCT116 (ATCC no. CCL-247, human colorectal carcinoma), and HCT116/VM46 (a vinblastine-resistant strain of HCT116) cells in culture. A population of cells (>1×10^6 cells/mL as determined with a hemocytometer) was diluted with Dulbecco's Modified Eagle Medium (DMEM, Gibco) containing 10% fetal bovine serum (FBS, Gibco) to give a final concentration of 30,000 cells/mL. To each well of a 96-well plate (Corning® Costar®) was added 100 μL of the cell media solution with a multichannel pipet. The cultures were incubated at 37° C. in an atmosphere of 5% CO2 and 95% humidified air for 24 hours.
The test compounds were then added to the plate as follows: test compounds were diluted in DMSO to a concentration of 1 mM. 10-Fold serial dilutions in DMSO were next performed on a separate 96-well plate. Fresh culture media (100 μL) was added to each well of cells resulting in 200 μL of medium per well followed by 2 μL of each test agent. Compounds were tested in duplicate (n=2-8 times) at six concentrations between 0-1000 nM or 0-10000 nM. Following the addition of compound, cultures were incubated for an additional 72 hours.
The plates were incubated at 37° C. for 5 minutes (L1210) or 15 min (HCT116 and HCT116/VM46). After the given incubation time, 50 μL of 0.1 N NaOH was added to each well and the absorption at 405 nm was determined using a 96 well plate reader. […]

L1210 = assay: cells; type: cell-based, mouse
Summary of the method: as §1

Tubulin = conditions: for percent (%) displacement of tubulin-bound BODIPY-vinblastine: FIG. 2, competitive ligand 18 μM
Protocol: Control studies were performed with BODIPY-VBL in the absence of a competitive ligand (control 1, maximum FI enhancement) and in the absence of tubulin (control 2, no FI enhancement). Percent (%) BODIPY-VBL displacement was calculated by the formula: (control 1 FI−experiment FI)/(Control 1 FI−Control 2 FI)×100%. Reported values are the average of 5 measurements±SD.

A549-T24 = assay: cells; type: cell-based, human
Text: (§2) 2001, 98:11737; Kavallaris et al., Brit. J. Cancer. 1999, 80:1020; and Kavallaris et al., J. Clin. Invest. 1997, 100:1282]. As a result, the comparison of cell growth inhibition of candidate drugs against A549 vs A549-T24 has been used to characterize potential resistance due to increased expression of class III β-tubulin [Goncalves et al., Proc. Natl. Acad. Sci. USA. 2001, 98:11737; Kavallaris et al., Brit. J. Cancer. 1999, 80:1020; and Kavallaris et al., J. Clin. Invest. 1997, 100:1282].

A549 = assay: cells; type: cell-based, human
Text: as §2

[1] = table in Background, C20′ substituent X, read-out: IC50, HCT116
[2] = table in Background, C20′ substituent X, read-out: IC50, HCT116/VM46
[3] = Table 5, read-out: IC50 HCT116/VM46
[4] = Table 7, C20′ sulfonamides, read-out: IC50 HCT116
[5] = Table 8, 10′-F compounds, read-out: IC50 HCT116
[6] = table b183, value in parentheses

CCC1C[C@H]2CN(CCc3c([nH]c4ccccc34)[C@@](C(=O)OC)(c3cc4c(cc3OC)N(C)[C@H]3[C@@](O)(C(=O)OC)[C@H](OC(C)=O)[C@]5(CC)C=CCN6CC[C@]43[C@@H]65)C2)C1 (some centres unmarked) [Compound 4, reference compound]
IC50 (HCT116; [1]): 60 nM | IC50 (HCT116/VM46; [2]): 600 nM

CC[C@]1(N=[N+]=[N-])C[C@H]2CN(CCc3c([nH]c4ccccc34)[C@@](C(=O)OC)(c3cc4c(cc3OC)N(C)[C@H]3[C@@](O)(C(=O)OC)[C@H](OC(C)=O)[C@]5(CC)C=CCN6CC[C@]43[C@@H]65)C2)C1 [Compound 5, 20′-azidovinblastine]
IC50 (HCT116; [1]): 690 nM | IC50 (HCT116/VM46; [2]): 5500 nM

CC[C@]1(N)C[C@H]2CN(CCc3c([nH]c4ccccc34)[C@@](C(=O)OC)(c3cc4c(cc3OC)N(C)[C@H]3[C@@](O)(C(=O)OC)[C@H](OC(C)=O)[C@]5(CC)C=CCN6CC[C@]43[C@@H]65)C2)C1 [Compound 6, 20′-aminovinblastine]
IC50 (HCT116; [1]): 600 nM | IC50 (HCT116/VM46; [2]): > 10000 nM

CCC1(NC(=O)c2ccccc2)CC2CN(CCc3c([nH]c4ccccc34)C(C(=O)OC)(c3cc4c(cc3OC)N(C)C3C(O)(C(=O)OC)C(OC(C)=O)C5(CC)C=CCN6CCC43C65)C2)C1 (centres unmarked) [Compound 24]
IC50 (L1210; Table 2): 1.1 nM | potency relative to saturated cyclohexyl counterpart Compound 20 (more potent) (HCT116): > 50 fold | IC50 (HCT116; Table 2, read-out: IC50 HCT116): 0.8 nM | potency relative to vinblastine (more potent) (HCT116): > 5 fold | percent (%) displacement of tubulin-bound BODIPY-vinblastine (Tubulin): 72±4%

CC[C@]1(NC(=O)c2ccc(C#N)cc2)C[C@H]2CN(CCc3c([nH]c4ccccc34)[C@@](C(=O)OC)(c3cc4c(cc3OC)N(C)[C@H]3[C@@](O)(C(=O)OC)[C@H](OC(C)=O)[C@]5(CC)C=CCN6CC[C@]43[C@@H]65)C2)C1 [Compound 54]
IC50 (L1210; Table 2): 4.4 nM | IC50 (HCT116; Table 2, read-out: IC50 HCT116): 3.1 nM | percent (%) displacement of tubulin-bound BODIPY-vinblastine (Tubulin): 56±5%

CCC1(NC(=O)c2ccc(NC(C)=O)cc2)CC2CN(CCc3c([nH]c4ccccc34)C(C(=O)OC)(c3cc4c(cc3OC)N(C)C3C(O)(C(=O)OC)C(OC(C)=O)C5(CC)C=CCN6CCC43C65)C2)C1 (centres unmarked) [Compound 58]
IC50 (L1210): 0.06 nM | IC50 (L1210; Table 2): 1.6 nM | IC50 (HCT116; Table 2, read-out: IC50 HCT116): 0.8 nM | IC50 (HCT116; read-out: IC50 HCT116): 0.07 nM | IC50 (A549-T24): 0.13 nM | IC50 (A549; read-out: IC50 A549): 0.17 nM

CCC1(NC(=O)c2ccc(NC(=O)OC(C)(C)C)cc2)CC2CN(CCc3c([nH]c4ccccc34)C(C(=O)OC)(c3cc4c(cc3OC)N(C)C3C(O)(C(=O)OC)C(OC(C)=O)C5(CC)C=CCN6CCC43C65)C2)C1 (centres unmarked) [Compound 60]
IC50 (L1210): 0.06 nM | IC50 (L1210; Table 2): 0.3 nM | IC50 (HCT116; Table 2, read-out: IC50 HCT116): 0.3 nM | IC50 (HCT116; read-out: IC50 HCT116): 0.07 nM | IC50 (A549-T24): 0.09 nM | IC50 (A549; read-out: IC50 A549): 0.19 nM

CC[C@]1(NC(=O)c2ccc(NS(C)(=O)=O)cc2)C[C@H]2CN(CCc3c([nH]c4ccccc34)[C@@](C(=O)OC)(c3cc4c(cc3OC)N(C)[C@H]3[C@@](O)(C(=O)OC)[C@H](OC(C)=O)[C@]5(CC)C=CCN6CC[C@]43[C@@H]65)C2)C1 [Compound 61]
IC50 (L1210): 0.06 nM | IC50 (L1210; Table 2): 0.4 nM | IC50 (HCT116; Table 2, read-out: IC50 HCT116): 0.3 nM | IC50 (HCT116; read-out: IC50 HCT116): 0.07 nM | IC50 (A549-T24): 0.26 nM | IC50 (A549; read-out: IC50 A549): 0.53 nM

CC[C@]1(NC(=O)c2ccc(N(C)C)cc2)C[C@H]2CN(CCc3c([nH]c4ccccc34)[C@@](C(=O)OC)(c3cc4c(cc3OC)N(C)[C@H]3[C@@](O)(C(=O)OC)[C@H](OC(C)=O)[C@]5(CC)C=CCN6CC[C@]43[C@@H]65)C2)C1 [Compound 64]
IC50 (L1210; Table 2): 0.18 nM | IC50 (HCT116; Table 2, read-out: IC50 HCT116): 0.18 nM | percent (%) displacement of tubulin-bound BODIPY-vinblastine (Tubulin): 88±5%

CCC1(NC(=O)c2ccc3c(c2)CCCC3)CC2CN(CCc3c([nH]c4ccccc34)C(C(=O)OC)(c3cc4c(cc3OC)N(C)C3C(O)(C(=O)OC)C(OC(C)=O)C5(CC)C=CCN6CCC43C65)C2)C1 (centres unmarked) [Compound 121]
IC50 (L1210): 3 nM | IC50 (L1210; Table 4): 3.3 nM | IC50 (HCT116; Table 4, read-out: IC50 HCT116): 4.9 nM | IC50 (HCT116; Table 9, read-out: IC50 (nM, HCT116)): 4.9 nM | IC50 (HCT116; Table 10, read-out: IC50 (nM), HCT116): 4.9 nM | IC50 (HCT116; read-out: IC50 HCT116): 4.9 nM | potency relative to vinblastine (more potent) (HCT116): about 2 fold | IC50 (A549-T24): 6.5 nM | IC50 (A549; read-out: IC50 A549): 7.6 nM | % displacement (Tubulin; Table 9, displacement of tubulin bound BODIPY-vinblastine): 63 ± 5% | relative tubulin binding affinity vs vinblastine (Tubulin; in words, b167): essentially indistinguishable from or perhaps slightly better than that of vinblastine

CCC1(NC(=O)c2cn(C)cn2)CC2CN(CCc3c([nH]c4ccccc34)C(C(=O)OC)(c3cc4c(cc3OC)N(C)C3C(O)(C(=O)OC)C(OC(C)=O)C5(CC)C=CCN6CCC43C65)C2)C1 (centres unmarked) [Compound 142]
IC50 (L1210; Table 5): 80 nM | IC50 (HCT116; Table 5, read-out: IC50 HCT116): 50 nM | IC50 (HCT116/VM46; [3]): > 1000 nM

CCC1(NC(=O)C2CCNCC2)CC2CN(CCc3c([nH]c4ccccc34)C(C(=O)OC)(c3cc4c(cc3OC)N(C)C3C(O)(C(=O)OC)C(OC(C)=O)C5(CC)C=CCN6CCC43C65)C2)C1 (centres unmarked) [Compound 146]
IC50 (L1210; Table 5): 4200 nM | IC50 (HCT116; Table 5, read-out: IC50 HCT116): > 10000 nM | IC50 (HCT116/VM46; [3]): > 10000 nM

CC[C@]1(NS(=O)(=O)c2ccc3ccccc3c2)C[C@H]2CN(CCc3c([nH]c4ccccc34)[C@@](C(=O)OC)(c3cc4c(cc3OC)N(C)[C@H]3[C@@](O)(C(=O)OC)[C@H](OC(C)=O)[C@]5(CC)C=CCN6CC[C@]43[C@@H]65)C2)C1 [Compound 185]
IC50 (L1210; Table 7, C20′ sulfonamides): 50 nM | IC50 (HCT116; [4]): 60 nM

CCC1(NS(=O)(=O)c2cccc3c(N(C)C)cccc23)CC2CN(CCc3c([nH]c4ccccc34)C(C(=O)OC)(c3cc4c(cc3OC)N(C)C3C(O)(C(=O)OC)C(OC(C)=O)C5(CC)C=CCN6CCC43C65)C2)C1 (centres unmarked) [Compound 186]
IC50 (L1210; Table 7, C20′ sulfonamides): 30 nM | IC50 (HCT116; [4]): 30 nM

CC[C@]1(NC(=O)c2ccc(OC(F)(F)F)cc2)C[C@H]2CN(CCc3c([nH]c4ccc(F)cc34)[C@@](C(=O)OC)(c3cc4c(cc3OC)N(C)[C@H]3[C@@](O)(C(=O)OC)[C@H](OC(C)=O)[C@]5(CC)C=CCN6CC[C@]43[C@@H]65)C2)C1 [Compound 188]
IC50 (L1210; Table 8, 10′-F compounds): 0.6 nM | IC50 (HCT116; [5]): 0.7 nM

CC[C@]1(NC(=O)c2ccc3c(c2)CCCC3)C[C@H]2CN(CCc3c([nH]c4ccc(F)cc34)[C@@](C(=O)OC)(c3cc4c(cc3OC)N(C)[C@H]3[C@@](O)(C(=O)OC)[C@H](OC(C)=O)[C@]5(CC)C=CCN6CC[C@]43[C@@H]65)C2)C1 [Compound 189]
IC50 (L1210; Table 8, 10′-F compounds): 5 nM | IC50 (HCT116; [5]): 6.2 nM

CC(=O)O[C@H]1C(=O)[C@@]2(C)[C@H]([C@H](OC(=O)c3ccccc3)[C@]3(O)C[C@H](OC(=O)[C@H](O)[C@@H](NC(=O)c4ccccc4)c4ccccc4)C(C)=C1C3(C)C)[C@]1(OC(C)=O)CO[C@@H]1C[C@@H]2O [Taxol, reference compound]
IC50 (HCT116; Homo sapiens, HCT-116, table b183, read-out: IC50 HCT116): 4.1 nM | loss in potency A549-T24 relative to wild type A549 (A549-T24): 10 fold | IC50 (A549-T24; Homo sapiens): 70 nM | Measured fold resistant vs wt A549 (A549-T24; [6]): 10 | IC50 (A549; Homo sapiens, A549, read-out: IC50 A549): 7.1 nM | IC50 (A549; Homo sapiens, A549, read-out: IC50 wild type A549): 7.1 nM | IC50 (HCT116/VM46; Homo sapiens, HCT-116/VM46, table b183, read-out: IC50 HCT116/VM46): > 200 nM | Measured fold resistant vs wt HCT116 (HCT116/VM46; [6]): > 50
